For series [1], the system named is Phytophthora infestans. Format: in vivo. To be noted: tomato plants, protective spray, application rate 50 g/ha, evaluation 3 days after inoculation; 100% = no infection.

Each structure is given as a SMILES string.

`Cc1noc(C)c1S(=O)(=O)n1nc(Cl)nc1-c1ccccc1` [drawing 94] gave an Efficacy in % in series [1] of 97%.
As a reminder, the melting point is the temperature, or range, at which the solid turns liquid. Consider `Cc1noc(C)c1S(=O)(=O)n1nc(Cl)nc1-c1ccccc1` [Example 1], for which the melting point was in the range of 70 to 74 °C.
